US12084523B2, “Ubiquitin high affinity cyclic peptides and methods of use thereof” (TECHNION RESEARCH & DEVELOPMENT FOUNDATION LIMITED, priority 2018, dated 2024)

Columns and labels:
[1] = system: Ub-conjugates in HeLa cells; test: Western blot of cellular Ub-conjugates; type: cell-based, human
Protocol: (§1) FIGS. 5A-5F are images and graphs showing the uptake of Ub4ix by living cells and its cellular effect. (5A) is an image of the structure of fluorescein-5-maleimide-Ub4ix. (5B) is micrographs of HeLa cells incubated in the presence of DMSO (Negative control) or fluorescein-5-maleimide-Ub4ix cyclic peptide (20 μM). Internalization of the peptide into the cells was monitored at the indicated time points. Ub4ix induced the accumulation of Ub-conjugates, as a result of proteolysis inhibition. (5C) is an image of a western blot analysis of ubiquitinated proteins from HeLa cells which were incubated in the presence of Ub4ix, fluorescein-5-maleimide-Ub4ix, or MG132 for the indicated time-periods. Cells were lysed, resolved using SDS-PAGE, proteins were transferred to a nitrocellulose membrane, and the membrane was blotted using an antibody against Ub-conjugates (Ub conj), and Actin. (5D) is a graph of radio-labeled proteins from HeLa cells which were labeled with radioactive S-Met and S-Cys and were then chased for 4 hours in “cold” media. Cells were either non-treated (Control), or incubated in the presence of DMSO, Ub4ix, or MG132, at the indicated concentrations. Radioactivity levels, resulting from protein breakdown during the chase phase, were measured using a scintillation counter. […]

USP2 [2] = test: In vitro deubiquitination assay, USP2 with K48-linked tetra-Ub; type: biochemical; conditions: tetra-Ub chain, after removal of the distal Ub (tri-Ub)
Protocol: (§2) In Vitro Deubiquitination Assay
(§3) In vitro deubiquitination reactions were performed in a Tris buffer (50 mM TRIS, 1 mM TCEP, pH 7.7), containing 2 μM ^K48Ub2/4, then the specific DUB (50 mM Tris, 0.5 mM EDTA, 1 mM TCEP and 0.5 mg/ml ovalbumin, pH 7.5) was added. The reaction mixtures were incubated at 37° C. and at the indicated time points the reactions were stopped by taking aliquots and mixed them with 3× sample buffer and boiling. The same amounts were loaded on 14% SDS-PAGE, electro-blotted to nitrocellulose membrane and probed with an anti-Ub antibody. Bands were quantified with Image Quant LAS 4000 (GE Healthcare).
(§4) The inventors further chose to examine the effect of these cyclic peptides on two DUBs: OTUB1, a K48-linkage chain specific DUB, and USP2, which cleaves most Ub chains without specificity, using K48-linked di- and tetra-Ub chains as substrates.

[3] = system: cellular protein breakdown in HeLa cells; test: Radioactive pulse and chase, degradation-inhibition assay; type: cell-based, human; conditions: 4 h chase, vs non-treated or DMSO
Protocol: Radioactive Pulse and Chase
For degradation-inhibition assays, cells were labeled with ^35S-methionine and cysteine (20 μCi) for 16 hours, followed by a chase in cold medium for 4 hours, in the presence of DMSO, proteasome inhibitor MG132, or Ub4ix. Media were then collected, and amino acids were extracted using TCA precipitation. Radioactive readings were measured using a scintillation counter.
In order to directly measure the effect of Ub4ix on proteolysis, the inventors employed radiolabeling of cellular proteins, followed by a chase experiment in the presence of either Ub4ix or the proteasome inhibitor MG132. […] The inventors validated this inhibitory effect on protein breakdown with known proteasomal substrates, the proteins p53, and p27, bona fide substrates of the UPS.

[4] = system: protein synthesis in HeLa cells; test: Radioactive pulse assay of protein synthesis; type: cell-based, human; conditions: 35S-Met/Cys incorporation
Protocol: HeLa cells were incubated with either DMSO, ribosomal inhibitor cycloheximide (CHX), or Ub4ix. After 4 hours, media were replaced with media containing radioactive Methionine and Cysteine, and cells where pulsed for 4 hours. Cells were thoroughly washed, proteins were extracted from the cells, and the radioactive readings of each sample were measured using a scintillation counter, indicating the extent of incorporation of radiolabeled Methionine and Cysteine into newly synthesized proteins.
For the assay of inhibitions of protein synthesis, cells were incubated with DMSO, ribosomal inhibitor cycloheximide (CHX), or Ub4ix. After 4 hours, media were replaced with medium containing ^35S-methionine and cysteine (20 μCi) and cells where pulsed for 4 hours. Plates were extensively washed with ice-cold PBS and proteins were extracted from cells using trichloroacetic acid (TCA) precipitation. The radioactive readings were measured using a scintillation counter.

HeLa cells [5] = test: Annexin V-FITC FACS apoptosis analysis; type: cell-based, human; conditions: 10 μM, 24 h and 48 h
Protocol: Fluorescence-Activated Cell Sorting (FACS) Analysis
Induction of apoptosis in Hela cells by treatment with cyclic peptides were determined after 24 and 48 hours incubation in a dose dependent manner, using annexin V-FITC apoptosis detection kit (BD Biosciences) according to the manufacturer s protocol. Two (2)×10^5 cells/well were seeded in 6-well plates and treated with an inhibitor for 24/48 hours in a dose dependent manner. The increase in fluorescence, which indicates the apoptosis level in the treated cells, were monitored using flow cytometry and compared to untreated cells containing DMSO as a negative control and MG132 as a positive control.
Given that Ub4ix has a pronounced inhibitory effect on the UPS system, the inventors further wanted to examine whether it inhibit cell growth and induce apoptosis in cancer cells. […] The effects of the cyclic peptides on apoptosis were evaluated using FACS analysis.

^K48Ub4 = biological target: T1, ^K48Ub4 (Homo sapiens, UniProt P0CG47); test: SPR binding of cyclic peptides to K48-linked tetra-ubiquitin; conditions: SPR, target ^K48Ub4
T1 construct: solid phase peptide synthesis of Ub monomers (modified as required); made in house
Protocol: Surface Plasmon Resonance (SPR)
The interactions between cyclic peptides: U2i, U2ii, U4i, U4ix and Ub1, ^K48Ub2 and ^K48Ub4, were determined using BIACORE T100 instrument (GE healthcare) equipped with a biotin CAPture kit Series S chip. The buffer in all experiments contained 50 mM HEPES, pH 7.3, 150 mM NaCl, 0.05% Tween20, 2 mM DTT with 0.2% DMSO. Biotinylated Ub1, ^K48Ub2 and ^K48Ub4 were loaded to approximately equal molar amounts on the SPR chip, and various concentrations of cyclic peptides were flowed over at […] for 120 sec, before initiation of dissociation by flowing buffer over at […] for further 700 sec. Traces were fit to the simplest, two-state model for binding. Association was fit to a single exponential assuming pseudo-first order conditions, whereas the dissociation trace was fit to single exponential plus a drift term. Finally, due to the poor quality of the traces for U4ix binding ^K48Ub2, the amplitude of the association kinetic trace at different concentrations of peptide was fit to estimate the lower bound for KD.
Each peptide was flowed over Ub1, ^K48Ub2 and […] immobilized on SPR chips. There was no detectable binding to Ub1 for any of the peptides, as expected, as Ub1 binding was explicitly selected against during the RaPID protocol. […] However, Ub2i and Ub2ii also strongly bound ^K48Ub4, with a low apparent KD and an increased SPR response (FIG. 1E). This was consistent with a higher stoichiometry of binding to the tetramer, which could be explained by additional binding sites in ^K48Ub4. Indeed, the ^K48Ub2 structure can be superimposed twice on the ^K48Ub4 crystal structure (FIG. 10). […] However, similar to Ub2i and Ub2ii, Ub4i also bound ^K48Ub2. This was perhaps unsurprising, given the high sequence identity between Ub4i and Ub2i.

USP2 [6] = test: In vitro deubiquitination assay, USP2 with K48-linked di-Ub; type: biochemical; conditions: di-Ub as the substrate
Protocol: as §2, §3, §4

26S proteasome = test: In vitro proteasome degradation assay of HA-α-globin-K48-linked tetra-Ub; type: biochemical; conditions: 5.3 μM peptide
[7] = system: p53 and p27 in HeLa cells; test: Western blot of proteasomal substrates p53 and p27; type: cell-based, human
Protocol: as §1

HeLa cells [8] = type: cell-based, human; conditions: MTT
Protocol: Cell Viability Assays and Kinetic Experiments In order to assess the effect of the cyclic peptides on Hela cells, toxicity was determined using the MTT assay. Equal amounts of cells (8,000 cells/well) were plated in 96-well plates in triplicate. After 24 hours, attached cells were exposed to increasing concentrations of the cyclic peptides for another 24 hours. […] Optical density was recorded at 590 nm with a reference measurement at 630 nm.

With `CC[C@H](C)[C@@H]1NC(=O)[C@H](Cc2c[nH]c3ccccc23)NC(=O)[C@H](Cc2c[nH]c3ccccc23)NC(=O)[C@H](CC(=O)O)NC(=O)CNC(=O)[C@H](CO)NC(=O)[C@H](CC(=O)O)NC(=O)[C@H](CC(=O)O)NC(=O)[C@H](CC(C)C)NC(=O)[C@H](Cc2ccc(O)cc2)NC(=O)[C@H](CC(C)C)NC(=O)[C@@H](Cc2c[nH]c3ccccc23)NC(=O)CSC[C@@H](C(=O)NCC(N)=O)NC1=O` [Ub4ix] the “cellular level of Ub-conjugates” value [1] was “elevation in Ub-conjugates”, the “inhibition of USP2” value (USP2 [2]) was “strong inhibition” and the protein breakdown [3] was “markedly reduced”. The “effect on protein synthesis” value [4] was “does not interfere with protein synthesis”, the apoptosis (HeLa cells [5]) was “clear increase in apoptosis” and the koff (^K48Ub4) was 0.021 s⁻¹. For the same compound, the kon (^K48Ub4) was 3.52e+06 M⁻¹ s⁻¹, the “inhibition of USP2” value (USP2 [6]) was “minimal inhibition” and the “inhibition of proteasomal degradation of α-globin-K48-linked tetra-Ub” value (26S proteasome) was “clear inhibition”. For the same compound, the “p53 and p27 levels” value [7] was “accumulated over time” and the “suppression of cell growth” value (HeLa cells [8]) was “most effective”.
